Results taken from patent US12402627B2, “Metal complexes for promoting growth in a photosynthetic organism” (Imperial College Innovations Limited, priority 2018, dated 2025).

What was measured:
[1] = Kinetic measurement of CO2 hydration via stopped flow; assay type: biochemical; conditions: pH 7.4; for Hydration kobs: 25° C.
Text: (§1) The hydration and dehydration rate measurements were undertaken by detecting the associated pH change through the use of an appropriate colorimetric pH indicator via stopped-flow equipment (Applied Photophysics SX-20 Stopped-flow Spectrometer) as described by B. H. Gibbons et al. (J. Biol. Chem., 238(10), (1963), 3502-3507). The pH time-dependence of CO2 hydration or HCO3− dehydration was observed via the absorbance change of a buffered indicator solution in order to measure the change in Vhydr/dehydr over a concentration range of zinc mimic, and to determine the observed rate constant (kobs) for each reaction.
(§2) Following the procedure reported by K. Nakata et al. (J. Inorg. Biochem., 89, (2002), 255-266), a 0.1 M buffer solution containing 10×10^−5M indicator, 0.2 M NaClO4 and varying concentrations of the zinc complex in DMSO 1:9 H2O were loaded into one syringe and a CO2 or HCO3− aqueous solution in the other. […] The saturated solution was diluted appropriately to give the desired concentration of CO2. HCO3− solutions were prepared by dissolving NaHCO3 in water to give the desired concentration of HCO3−. The buffer-indicator pairs were chosen based upon their similar pKa's, and the pH of the buffer-indicator solution was adjusted to match these pKa's to maximize sensitivity to pH change (see Table 2).
(§3) Upon mixing of the two syringes, the change in absorbance over time was measured at 25° C. For each buffer solution employed over the tested pH range, the buffer factor (change in absorbance vs concentration of HCl/NaOH) and linearity of CO2 and HCO3− (change in absorbance vs concentration of CO2/HCO3−) were determined as controls.
(§4) Based upon the linearity of the response between CO2 or HCO3− concentration and change in absorbance, appropriate concentrations of CO2 or HCO3− were chosen within the linear range for the subsequent complex runs. At each concentration of complex, the Vhydr (rate of hydration) and Vdehyd (rate of dehydration) was measured and kobs (observed rate constant) was calculated as per the procedure of by K. Nakata et al. (J. Inorg. Biochem., 89, (2002), 255-266).
(§5) Briefly, Vhyd/dehyd=−Q(A0−Ae)[d(In(A−Ae))/dt]t→0, where Q=buffer factor. The function [d(In(A−Ae))/dt]t→0 was taken from fitting the first linear portion of the time-dependent absorbance data with a single exponential decay function. kobs was calculated as the slope of the linear fit between mimic concentration and Vhyd/dehyd/[S]. kcat (catalytic rate constant) was calculated as the pH independent catalyst rate constant as per K. Nakata et al. (J. Inorg. Biochem., 89, (2002), 255-266) and L. Koziol et al. (Inorg. Chem., 51(12), (2012) 6803-12) for the hydration reaction (kcat=kobs×(([H^+]/Ka)+1)), and Y.-J. Sun et al. (Inorg. Chem. Commun., 7(2), (2004), 165-168) for the dehydration reaction (kcat=(kobs×([H^+]+Ka))/[H^+]). Each run of 3 repeats was undertaken 3 times and the average taken, to give N=9.

[2] = Kinetic measurement of HCO3− dehydration via stopped flow; assay type: biochemical; conditions: for Dehydration kobs: pH 7.4, 25° C.
Text: as §1, §2, §3, §4, §5

[3] = biological target: T1, Rubisco (Spinacia oleracea, UniProt P00875); assay: Effect of zinc mimics on Rubisco activity (non-radioactive microplate assay, 3-PGA/NADH oxidation); assay type: biochemical; conditions: pH 8; 0-50 μM zinc mimic; FIGS. 4 to 7
T1 construct: from tissue; purified by the cited method of O'Donnelly et al., Plant Methods 2014
Experimental: Rubisco was purified using hydrophobic interaction chromatography as per the method of K. O'Donnelly et al. (Plant methods, 10, (2014), 17). For all assays, the rate was determined using a non-radioactive microplate-based assay, which determines the product 3-phosphoglycerate (3-PGA) through the oxidation of NADH by optical density measurements at 340 nm at 25° C., adapted from R. Sulpice et al. (Plant Cell Environ., 30(9), (2007), 1163-75) and K. O'Donnelly et al. (Plant methods, 10, (2014), 17). A Thermo Scientific Varioskan Flash Multimode microplate reader was used to monitor the oxidation of NADH for 15 minutes every 100 ms.
The enzymological properties of Rubisco were typically measured as follows: 10 μL Rubisco and 10 μL of initial buffer were incubated for 15 mins, after which 10 μL of ribulose 1,5-biphosphate (RuBP) was added [Final concentrations for Rubisco assay in 30 μL total volume were 0, 10, 20, 40, 80, 150, 300 and 500 μM RuBP, 0.02 mg/mL Rubisco, 100 mM tricine (pH 8.0/NaOH), 20 mM MgCl2, 2 mM EDTA and 10 mM NaHCO3]. […] The activity was calculated as μmol·min^−l·mg^−1 using a calibration curve with 3PGA. […]
10 μL of Rubisco and 10 μL of pH 8 initial buffer containing varying concentrations of zinc complex were incubated in a 96 well plate for 15 mins. […] The final pH, after the addition of NaHCO3, and before the addition of Rubisco, was measured as pH 8.0. […]

[4] = tested on: spinach (Spinacia oleracea L.); assay: Effect of zinc mimics on spinach growth (number of new leaves); assay type: in vivo; conditions: 1.5 mM in DMSO or H2O, 5 μl droplets to each leaf, three times a week for two weeks, FIG. 8
Experimental: Commercial cultivar spinach seeds (Spinacia oleracea L.) were planted in soil mixture of “John Innes Inc. seed sowing compost No2”: Vermiculite (4:1) in small pots. Spinach seeds were germinated in a Sanyo MLR-352 growth chamber under day (photosynthetically active photon flux density (PPFD) at 110-130 μmol·m-2s-1) and night conditions, changing every 12 hours. Air temperature was maintained at 20° C. and 15° C. during day and night conditions, respectively, with a constant relative humidity at 65%. Spinach plants were irrigated three times a week. At the second true leaf stage (approximately 3 weeks from seed germination), the seeds were transferred into larger singular pots in “John Innes No2—Potting on compost” soil. No extra fertilizer was added.
At the fourth true leaf stage (roughly 4-6 weeks after germination), the treatment (1.5 mM in DMSO or H2O) was applied directly to each leaf of the plant in 5 μl droplets using a Brand Handystep S. The treatments were applied three times a week (directly after irrigation) for two weeks. The leaf stage and the state of the leaves were observed throughout the treatment period.

[5] = high substrate concentration (16.9 mM)
[6] = low substrate concentration (1.69 mM)

rubisco activity [3] | Compound | Hydration:Dehydration Ratio [1, 5] | Hydration kobs [1, 5] [M⁻¹ s⁻¹] | Hydration:Dehydration Ratio [1, 6] | Hydration kobs [1, 6] [M⁻¹ s⁻¹] | Dehydration kobs [2, 5] [M⁻¹ s⁻¹] | Dehydration kobs [2, 6] [M⁻¹ s⁻¹] | specificity toward dehydration ([2]; from the results in Tables 3 and 4, pH 7.4) | number of new leaves [4]
 | O.[O-][Cl+3]([O-])([O-])[O-].[O-][Cl+3]([O-])([O-])[O-].[Zn+2].c1ccc2sc(CNCc3nc4ccccc4s3)nc2c1 [Zn2S, zinc complex of bis(2-benzothiazolylmethyl)amine] | 0.57 | 17.5 ± 8.6 | 3.01 | 347.1 ± 33.0 | 30.6 ± 0.6 | 115.2 ± 1.8 |  | 
significant improvement in activity | O.[O-][Cl+3]([O-])([O-])[O-].[O-][Cl+3]([O-])([O-])[O-].[Zn+2].c1ccc2sc(CN(Cc3nc4ccccc4s3)Cc3nc4ccccc4s3)nc2c1 [Zn3S, zinc complex of tris(2-benzothiazolylmethyl)amine] | 0.65 | 24.5 ± 10.4 | 3.05 | 429.7 ± 51.2 | 37.8 ± 0.8 | 140.8 ± 4.8 |  | 
 | zinc complex of bis(2-benzimidazolylmethyl)(2-benzothiazolylmethyl)amine [Zn2N1S] | 0.60 | 26.6 ± 11.1 | 3.14 | 495.4 ± 34.0 | 44.6 ± 1.6 | 157.6 ± 2.1 |  | 
 | zinc complex of bis(2-benzimidazolylmethyl)amine [Zn2N] | 0.80 | 22.0 ± 9.3 | 3.94 | 370.6 ± 13.4 | 27.5 ± 0.5 | 94.1 ± 1.6 |  | 
significant improvement in activity | zinc complex of bis(2-benzothiazolylmethyl)(2-benzimidazolylmethyl)amine [Zn1N2S] | 0.49 | 25.3 ± 8.4 | 2.57 | 440.8 ± 24.5 | 51.9 ± 0.5 | 171.3 ± 4.5 | best specificity toward dehydration | 
 | zinc complex of tris(2-benzimidazolylmethyl)amine [Zn3N] | 1.02 | 34.4 ± 11.3 | 4.13 | 512.3 ± 60.3 | 33.8 ± 0.8 | 124.1 ± 1.8 |  | significant improvement in the number of new leaves
